Test results: patent US11021493B2, “1,4-thiazine dioxide and 1,2,4-thiadiazine dioxide derivatives as beta-secretase inhibitors and methods of use” (AMGEN INC., priority 2016, dated 2021)

Columns and labels:
[1] = biological target: Cathepsin D (CatD) (Homo sapiens (Human), UniProt P07339); experiment: In vitro enzymatic Cathepsin D (CatD) FRET assay; format: biochemical; settings: read-out: Cat D Enzyme IC50
[2] = biological target: T1, BACE1 (Homo sapiens (Human), UniProt P56817); experiment: In vitro enzymatic BACE1 FRET assay; format: biochemical; settings: read-out: BACE1 Enzyme IC50
Target sequence in this assay (P56817 46-501): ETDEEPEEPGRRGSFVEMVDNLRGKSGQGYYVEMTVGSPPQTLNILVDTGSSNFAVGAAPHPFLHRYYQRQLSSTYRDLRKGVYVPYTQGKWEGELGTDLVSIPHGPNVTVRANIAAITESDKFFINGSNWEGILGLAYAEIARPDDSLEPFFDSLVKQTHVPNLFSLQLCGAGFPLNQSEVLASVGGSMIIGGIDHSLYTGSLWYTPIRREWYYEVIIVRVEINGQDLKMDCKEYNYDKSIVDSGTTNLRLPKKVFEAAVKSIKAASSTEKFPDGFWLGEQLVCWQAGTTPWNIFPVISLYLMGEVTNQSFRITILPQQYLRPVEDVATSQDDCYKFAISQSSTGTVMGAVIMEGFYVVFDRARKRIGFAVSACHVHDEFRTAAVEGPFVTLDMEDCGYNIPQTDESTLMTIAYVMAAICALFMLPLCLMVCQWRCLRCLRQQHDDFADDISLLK

[3] = biological target: human recombinant BACE2 (Homo sapiens (Human), UniProt Q9Y5Z0); experiment: In vitro enzymatic BACE2 FRET assay; format: biochemical; settings: read-out: BACE2 Enzyme IC50
human recombinant BACE2, sequence (Q9Y5Z0 63-518): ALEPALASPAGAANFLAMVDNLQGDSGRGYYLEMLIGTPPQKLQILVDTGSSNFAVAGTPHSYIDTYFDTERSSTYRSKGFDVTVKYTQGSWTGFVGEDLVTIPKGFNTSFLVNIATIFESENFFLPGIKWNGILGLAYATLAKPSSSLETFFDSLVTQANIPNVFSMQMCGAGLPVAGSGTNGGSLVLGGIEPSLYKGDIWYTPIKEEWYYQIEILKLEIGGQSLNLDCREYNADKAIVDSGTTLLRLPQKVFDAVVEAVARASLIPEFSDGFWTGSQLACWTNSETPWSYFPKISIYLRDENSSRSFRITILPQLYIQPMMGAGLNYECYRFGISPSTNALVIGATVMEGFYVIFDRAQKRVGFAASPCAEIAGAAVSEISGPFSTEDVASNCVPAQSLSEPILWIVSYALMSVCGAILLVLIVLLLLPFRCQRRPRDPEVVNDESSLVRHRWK

[4] = biological target: T1, BACE1; experiment: In vitro BACE1 cell-based assay (Aβ40 in conditioned medium of cells stably expressing APP, HTRF); settings: Aβ40 in conditioned media after 24 h incubation
Target sequence in this assay (P56817 46-501, species assumed): as the sequence (P56817 46-501) above

Cathepsin D (CatD), sequence (P07339 65-412, species assumed): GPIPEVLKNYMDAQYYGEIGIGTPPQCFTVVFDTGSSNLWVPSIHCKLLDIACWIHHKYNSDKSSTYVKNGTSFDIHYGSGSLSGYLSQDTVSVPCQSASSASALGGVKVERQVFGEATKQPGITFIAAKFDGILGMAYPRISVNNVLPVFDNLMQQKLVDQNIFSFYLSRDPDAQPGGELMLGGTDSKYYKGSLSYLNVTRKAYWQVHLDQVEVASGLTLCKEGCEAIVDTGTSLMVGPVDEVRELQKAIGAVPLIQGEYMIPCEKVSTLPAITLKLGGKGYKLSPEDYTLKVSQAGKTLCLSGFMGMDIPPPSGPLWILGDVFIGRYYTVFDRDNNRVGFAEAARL

SMILES	IC50 [1]	IC50 [2]	IC50 [3]	IC50 [4]
CN1C(N)=N[C@](C)(c2cc(/C=C(\F)c3cc4c(cn3)OCCO4)ccc2F)CS1(=O)=O [Example 187, (R,Z)-3-amino-5-(5-(2-(2,3-dihydro-[1,4]dioxino[2,3-c]pyridin-7-yl)-2-fluorovinyl)-2-fluorophenyl)-2,5-dimethyl-5,6-dihydro-2H-1,2,4-thiadiazine 1,1-dioxide]	165000 nM	172 nM	78 nM	108 nM
CN1C(N)=N[C@](C)(c2cc(/C=C(\F)C3CCOCC3)cc(F)c2F)CS1(=O)=O [Example 110, (R,Z)-3-amino-5-(2,3-difluoro-5-(2-fluoro-2-(tetrahydro-2H-pyran-4-yl)vinyl)phenyl)-2,5-dimethyl-5,6-dihydro-2H-1,2,4-thiadiazine 1,1-dioxide]	194000 nM	709 nM	963 nM	631 nM
C[C@@H](CO)Oc1cnc(/C(F)=C/c2ccc(F)c([C@]3(C)CS(=O)(=O)C(C)(C)C(N)=N3)c2)cn1 [Example 218, (R)-5-amino-3-(2-fluoro-5-((Z)-2-fluoro-2-(5-(((S)-1-hydroxypropan-2-yl)oxy)pyrazin-2-yl)vinyl)phenyl)-3,6,6-trimethyl-3,6-dihydro-2H-1,4-thiazine 1,1-dioxide]	195000 nM	180 nM	285 nM	529 nM
C[C@]1(c2cc(/C=C(\F)c3cnc(OCC(F)F)cn3)ccc2F)N=C(N)[C@@]2(CF)CC[C@@H]1S2(=O)=O [Example 134, (1R,4R,5S)-2-amino-4-(5-((Z)-2-(5-(2,2-difluoroethoxy)pyrazin-2-yl)-2-fluorovinyl)-2-fluorophenyl)-1-(fluoromethyl)-4-methyl-8-thia-3-azabicyclo[3.2.1]oct-2-ene 8,8-dioxide]	196000 nM	101 nM	123 nM	318 nM
CC1(C)C(N)=N[C@](C)(c2cc(/C=C(\F)c3cc4c(cn3)OCCO4)ccc2F)[C@H](F)S1(=O)=O (single isomer, unassigned) [Example 214]	303000 nM	225 nM	851 nM	5940 nM
COC[C@H](C)Oc1cnc(/C(F)=C/c2ccc(F)c([C@]3(C)CS(=O)(=O)N(C)C(N)=N3)c2)cn1 [Example 164, (R)-3-amino-5-(2-fluoro-5-((Z)-2-fluoro-2-(5-(((S)-1-methoxypropan-2-yl)oxy)pyrazin-2-yl)vinyl)phenyl)-2,5-dimethyl-5,6-dihydro-2H-1,2,4-thiadiazine 1,1-dioxide]	107000 nM	11 nM	108 nM	11 nM
Cc1nnc(COc2cnc(/C(F)=C/c3ccc(F)c([C@@]4(C)N=C(N)[C@@]5(CF)CC[C@@H]4S5(=O)=O)c3)cn2)o1 [Example 119, (1R,4R,5S)-2-amino-4-(2-fluoro-5-((Z)-2-fluoro-2-(5-((5-methyl-1,3,4-oxadiazol-2-yl)methoxy)pyrazin-2-yl)vinyl)phenyl)-1-(fluoromethyl)-4-methyl-8-thia-3-azabicyclo[3.2.1]oct-2-ene 8,8-dioxide]	> 400000 nM	21 nM	182 nM	60 nM
CN1C(N)=N[C@](C)(c2cc(/C=C(\F)c3cnc(OCC(F)(F)F)cn3)ccc2F)C2(CC2)S1(=O)=O [Example 163, (8R)-8-(2-fluoro-5-((Z)-2-fluoro-2-(5-(2,2,2-trifluoroethoxy)-2-pyrazinyl)ethenyl)phenyl)-5,8-dimethyl-4-thia-5,7-diazaspiro[2.5]oct-6-en-6-amine 4,4-dioxide]	223000 nM	133 nM	2880 nM	1120 nM
COC(C)COc1cnc(/C(F)=C/c2ccc(F)c([C@@]3(C)N=C(N)[C@@]4(CF)CC[C@@H]3S4(=O)=O)c2)cn1 (stereo partly drawn) [Example 136, (1R,4R,5S)-2-amino-4-(2-fluoro-5-((Z)-2-fluoro-2-(5-(2-methoxypropoxy)pyrazin-2-yl)vinyl)phenyl)-1-(fluoromethyl)-4-methyl-8-thia-3-azabicyclo[3.2.1]oct-2-ene 8,8-dioxide]	78200 nM	51 nM	315 nM	218 nM
COc1cnc(/C(F)=C/c2ccc(F)c([C@@]3(C)N=C(N)[C@@]4(CF)CC[C@@H]3S4(=O)=O)c2)cn1 [Example 121, (1R,4R,5S)-2-amino-4-(2-fluoro-5-((Z)-2-fluoro-2-(5-methoxypyrazin-2-yl)vinyl)phenyl)-1-(fluoromethyl)-4-methyl-8-thia-3-azabicyclo[3.2.1]oct-2-ene 8,8-dioxide]	> 400000 nM	98 nM	180 nM	191 nM

Compounds with a lower IC50 [1], results first:

IC50 [1]	IC50 [2]	IC50 [3]	IC50 [4]	SMILES
72500 nM	552 nM	112 nM	4180 nM	CN1C(N)=N[C@](C)(c2cc(/C=C(\F)c3cc4cc(Cl)ccc4cn3)ccc2F)CS1(=O)=O [Example 260, (5R)-5-(5-((Z)-2-(6-chloro-3-isoquinolinyl)-2-fluoroethenyl)-2-fluorophenyl)-2,5-dimethyl-5,6-dihydro-2H-1,2,4-thiadiazin-3-amine 1,1-dioxide]
64900 nM	11 nM	523 nM	188 nM	C#C[C@H](C)Oc1cnc(/C(F)=C/c2ccc(F)c([C@]3(CF)CS(=O)(=O)C(C)(C)C(N)=N3)c2)cn1 [Example 195, (S)-5-amino-3-(5-((Z)-2-(5-((S)-but-3-yn-2-yloxy)pyrazin-2-yl)-2-fluorovinyl)-2-fluorophenyl)-3-(fluoromethyl)-6,6-dimethyl-3,6-dihydro-2H-1,4-thiazine 1,1-dioxide]
57500 nM	187 nM	478 nM	181 nM	CC1(C)C(N)=N[C@](C)(c2cc(/C=C(\F)c3cnc(OCCn4cccn4)cn3)ccc2F)CS1(=O)=O [Example 157, (R,Z)-3-(5-(2-(5-(2-(1H-pyrazol-1-yl)ethoxy)pyrazin-2-yl)-2-fluorovinyl)-2-fluorophenyl)-5-amino-3,6,6-trimethyl-3,6-dihydro-2H-1,4-thiazine 1,1-dioxide]
48800 nM	15 nM	6 nM	47 nM	CN1C(N)=N[C@](C)(c2cc(/C=C(\F)c3ccc(Cl)cn3)cc(F)c2F)CS1(=O)=O [Example 152, (R,Z)-3-amino-5-(5-(2-(5-chloropyridin-2-yl)-2-fluorovinyl)-2,3-difluorophenyl)-2,5-dimethyl-5,6-dihydro-2H-1,2,4-thiadiazine 1,1-dioxide]
27500 nM	58 nM	107 nM	518 nM	CC1(C)C(N)=N[C@](C)(c2cc(/C=C(\F)c3cnc(OCC4CCC4)cn3)ccc2F)CS1(=O)=O [Example 145, (R,Z)-5-amino-3-(5-(2-(5-(cyclobutylmethoxy)pyrazin-2-yl)-2-fluorovinyl)-2-fluorophenyl)-3,6,6-trimethyl-3,6-dihydro-2H-1,4-thiazine 1,1-dioxide]
15400 nM	35 nM	14 nM	99 nM	CN1C(N)=N[C@](C)(c2cc(/C=C(\F)c3ccc(C#N)s3)ccc2F)CS1(=O)=O [Example 256, 5-((Z)-2-(3-((5R)-3-amino-2,5-dimethyl-1,1-dioxido-5,6-dihydro-2H-1,2,4-thiadiazin-5-yl)-4-fluorophenyl)-1-fluoroethenyl)-2-thiophenecarbonitrile]
